Format in all cases: in vivo, rat
For one assay, the system named is interleukin-6 (IL-6). The assay is described as follows: Colonic IL-6 (ELISA, colon homogenate). The following applies: TNBS-colitic rats, 100 mg/kg/day orally, 7 days, mean ± SEM, n = 8. The procedure:
(§1) The rats were food-deprived for a day, and colitis was induced as previously described (Wang et al., [2010]). Rats were anesthetized with ether and then a 5% TNBS (Sigma, St Louis, USA) (100 mg/kg) dissolved in 0.25 mL of 50% ethanol (v/v) (2:1) was administered by a polyethylene catheter introduced rectally to 6–8 cm from the anus. Rats were set in a head-down position for 30 seconds to avoid leakage of the solution (Lu et al., [2017]). Rats were randomly divided into seven groups (n = 8) including the normal control (NC) group, TNBS-colitic (positive control, PC) group, and five TNBS-colitic-treated groups which were orally given sulfasalazine (SSZ, 100 mg/kg/day, a reference treatment for IBD) (Yousefi-Ahmadipour et al., [2020]), low and high doses of OM (OML and OMH: 3.0 and 10.0 mg/kg/day (Nagib et al., [2013])) as a raw drug and as an OMS (OMSL and OMSH). OM was suspended in distilled water containing 0.25% carboxymethyl cellulose (Gorain et al., [2014]; Komesli et al., [2019]). The treatments were given for 7 days starting 4 hours after TNBS administration (Lu et al., [2017]). Rats were evaluated for the colitis activity score. […] The colon was excised, cleaned with ice-cold saline, measured for weight and length, and the macroscopic appearance was evaluated. Parts of the colon were homogenized and activities/levels of myeloperoxidase (MPO), tumor necrosis factor-α (TNF-α), interleukin-6 (IL-6), malondialdehyde (MDA), and reduced glutathione (GSH) were measured. The concentrations of olmesartan in plasma and colonic homogenate were measured by high performance liquid chromatography/mass spectrometry (HPLC/MS). […]
(§2) The colonic samples were homogenized using phosphate-buffered saline and a TissueLyser II (Qiagen) at 4 °C to yield a 10% homogenate. […] The colonic protein content was determined by using the Bradford method (Bradford, 1976). The activities and/or levels of MPO (a marker for neutrophil infiltration), TNF-α, IL-6, MDA, and GSH were measured using ELISA kits (MyBioSource, Inc. CA, USA) according to the manufacturer's guidelines and were expressed/mg protein.

Assay [1] concerns E-cadherin, Bax, Bcl-2, cleaved caspase-3. Kind of assay: Western blot of colonic E-cadherin, Bax, Bcl-2 and cleaved caspase-3. The conditions noted are these: TNBS-colitic rats, 100 mg/kg/day orally, 7 days. The protocol: (§3) The rats were food-deprived for a day, and colitis was induced as previously described (Wang et al., [2010]). Rats were anesthetized with ether and then a 5% TNBS (Sigma, St Louis, USA) (100 mg/kg) dissolved in 0.25 mL of 50% ethanol (v/v) (2:1) was administered by a polyethylene catheter introduced rectally to 6–8 cm from the anus. Rats were set in a head-down position for 30 seconds to avoid leakage of the solution (Lu et al., [2017]). Rats were randomly divided into seven groups (n = 8) including the normal control (NC) group, TNBS-colitic (positive control, PC) group, and five TNBS-colitic-treated groups which were orally given sulfasalazine (SSZ, 100 mg/kg/day, a reference treatment for IBD) (Yousefi-Ahmadipour et al., [2020]), low and high doses of OM (OML and OMH: 3.0 and 10.0 mg/kg/day (Nagib et al., [2013])) as a raw drug and as an OMS (OMSL and OMSH). OM was suspended in distilled water containing 0.25% carboxymethyl cellulose (Gorain et al., [2014]; Komesli et al., [2019]). The treatments were given for 7 days starting 4 hours after TNBS administration (Lu et al., [2017]). Rats were evaluated for the colitis activity score. At end of the treatment period, blood was collected, and rats were sacrificed. The colon was excised, cleaned with ice-cold saline, measured for weight and length, and the macroscopic appearance was evaluated. Parts of the colon were homogenized and activities/levels of myeloperoxidase (MPO), tumor necrosis factor-α (TNF-α), interleukin-6 (IL-6), malondialdehyde (MDA), and reduced glutathione (GSH) were measured. The concentrations of olmesartan in plasma and colonic homogenate were measured by high performance liquid chromatography/mass spectrometry (HPLC/MS). Samples of the colon were obtained for hematoxylin and eosin (H&E) and immunohistochemical staining (Joo et al., [2015])). All evaluations were made by blinded observers. […]
A general note: A western blot detects proteins with antibodies after separation by electrophoresis.

Assay [2] has as its system tumor necrosis factor-α (TNF-α). The assay is described as follows: Colonic TNF-α (ELISA, colon homogenate). The conditions noted are these: TNBS-colitic rats, 100 mg/kg/day orally, 7 days, mean ± SEM, n = 8. The protocol:
as §1, §2
In general terms: An ELISA detects its analyte on a solid surface through an enzyme-linked reagent.

For assay [3], the system named is trinitrobenzene sulfonic acid-induced acute colitis. Kind of assay: Disease activity score in TNBS-induced acute colitis. The conditions noted are these: TNBS-colitic rats, 100 mg/kg/day orally, 7 days; mean ± SEM, n = 8. The protocol: as §3, with “[2015])).” for “[2015])). All evaluations were made by blinded observers.”
The colitis activity index was measured to evaluate the activity of intestinal inflammation. The scores for weight loss, stool consistency, and fecal blood were calculated to give a disease activity score (DAS) as previously described (Wang et al., [2014]). […]

Assay [4] has the same test system. Kind of assay: Colonic histopathological examination (H&E). The conditions noted are these: TNBS-colitic rats, 100 mg/kg/day orally, 7 days. The protocol:
as §3, with “[2015])).” for “[2015])). All evaluations were made by blinded observers.”
The colonic parts were fixed in 10% buffered formalin and embedded in paraffin. Sections (3–5 µm) were prepared and stained with H&E. The degree of inflammation was expressed as mild, moderate, or severe (Wirtz et al., [2007]).

For a further assay, the system named is myeloperoxidase (MPO). The assay is described as follows: Colonic MPO activity (ELISA, colon homogenate). The conditions noted are these: TNBS-colitic rats, 100 mg/kg/day orally, 7 days, mean ± SEM, n = 8. The procedure: as §1, §2
The subject of the next assay is E-cadherin. Kind of assay: Colonic E-cadherin immunostaining. The conditions noted are these: TNBS-colitic rats, 100 mg/kg/day orally, 7 days. The procedure: (§4) The rats were food-deprived for a day, and colitis was induced as previously described (Wang et al., [2010]). Rats were anesthetized with ether and then a 5% TNBS (Sigma, St Louis, USA) (100 mg/kg) dissolved in 0.25 mL of 50% ethanol (v/v) (2:1) was administered by a polyethylene catheter introduced rectally to 6–8 cm from the anus. Rats were set in a head-down position for 30 seconds to avoid leakage of the solution (Lu et al., [2017]). Rats were randomly divided into seven groups (n = 8) including the normal control (NC) group, TNBS-colitic (positive control, PC) group, and five TNBS-colitic-treated groups which were orally given sulfasalazine (SSZ, 100 mg/kg/day, a reference treatment for IBD) (Yousefi-Ahmadipour et al., [2020]), low and high doses of OM (OML and OMH: 3.0 and 10.0 mg/kg/day (Nagib et al., [2013])) as a raw drug and as an OMS (OMSL and OMSH). OM was suspended in distilled water containing 0.25% carboxymethyl cellulose (Gorain et al., [2014]; Komesli et al., [2019]). The treatments were given for 7 days starting 4 hours after TNBS administration (Lu et al., [2017]). Rats were evaluated for the colitis activity score. At end of the treatment period, blood was collected, and rats were sacrificed. The colon was excised, cleaned with ice-cold saline, measured for weight and length, and the macroscopic appearance was evaluated. Parts of the colon were homogenized and activities/levels of myeloperoxidase (MPO), tumor necrosis factor-α (TNF-α), interleukin-6 (IL-6), malondialdehyde (MDA), and reduced glutathione (GSH) were measured. The concentrations of olmesartan in plasma and colonic homogenate were measured by high performance liquid chromatography/mass spectrometry (HPLC/MS). […]
(§5) Colonic sections were immunohistochemically stained for E-cadherin and Caspase-3 (ab13847; Abcam; 1:500 dilution). […] For MMP-9 immunostaining, the sections were probed with rabbit and mouse monoclonal anti-MMP-9 (1:150 dilution), detected with sheep anti-rabbit or anti-mouse IgG fluorescein isothiocyanate (1:500 dilution), and examined under a fluorescent microscope (Baugh et al., [1999]).

Assay [5] has as its system matrix metalloproteinase-9 (MMP-9). Kind of assay: Colonic MMP-9 immunostaining. The conditions noted are these: TNBS-colitic rats, 100 mg/kg/day orally, 7 days. The protocol:
as §4, §5

A further assay concerns caspase-3. Kind of assay: Colonic caspase-3 immunostaining. The conditions noted are these: TNBS-colitic rats, 100 mg/kg/day orally, 7 days. The protocol:
as §4, §5

The test system of assay [6] is reduced glutathione (GSH). Kind of assay: Colonic GSH (ELISA, colon homogenate). The following applies: TNBS-colitic rats, 100 mg/kg/day orally, 7 days, mean ± SEM, n = 8. The procedure: as §1, §2
Assay [7] has as its system trinitrobenzene sulfonic acid-induced acute colitis. The assay is described as follows: Colonic macroscopic examination and colon weight/length ratio in TNBS-induced acute colitis. The conditions noted are these: TNBS-colitic rats, 100 mg/kg/day orally, 7 days. The procedure: The rats were food-deprived for a day, and colitis was induced as previously described (Wang et al., [2010]). Rats were anesthetized with ether and then a 5% TNBS (Sigma, St Louis, USA) (100 mg/kg) dissolved in 0.25 mL of 50% ethanol (v/v) (2:1) was administered by a polyethylene catheter introduced rectally to 6–8 cm from the anus. Rats were set in a head-down position for 30 seconds to avoid leakage of the solution (Lu et al., [2017]). Rats were randomly divided into seven groups (n = 8) including the normal control (NC) group, TNBS-colitic (positive control, PC) group, and five TNBS-colitic-treated groups which were orally given sulfasalazine (SSZ, 100 mg/kg/day, a reference treatment for IBD) (Yousefi-Ahmadipour et al., [2020]), low and high doses of OM (OML and OMH: 3.0 and 10.0 mg/kg/day (Nagib et al., [2013])) as a raw drug and as an OMS (OMSL and OMSH). OM was suspended in distilled water containing 0.25% carboxymethyl cellulose (Gorain et al., [2014]; Komesli et al., [2019]). The treatments were given for 7 days starting 4 hours after TNBS administration (Lu et al., [2017]). Rats were evaluated for the colitis activity score. At end of the treatment period, blood was collected, and rats were sacrificed. The colon was excised, cleaned with ice-cold saline, measured for weight and length, and the macroscopic appearance was evaluated. Parts of the colon were homogenized and activities/levels of myeloperoxidase (MPO), tumor necrosis factor-α (TNF-α), interleukin-6 (IL-6), malondialdehyde (MDA), and reduced glutathione (GSH) were measured. The concentrations of olmesartan in plasma and colonic homogenate were measured by high performance liquid chromatography/mass spectrometry (HPLC/MS). Samples of the colon were obtained for hematoxylin and eosin (H&E) and immunohistochemical staining (Joo et al., [2015])). All evaluations were made by blinded observers.
The colon was measured for weight and length. The degree of colonic damage regarding edema, ulceration, bleeding, and necrosis was expressed as mild, moderate, or severe (Ghia et al., [2006]).

For the compound `O=C(O)c1cc(/N=N/c2ccc(S(=O)(=O)Nc3ccccn3)cc2)ccc1O` [SSZ, sulfasalazine], the IL-6 in the assay with interleukin-6 (IL-6) was 65.06 ± 1.46 $ pg/mg protein. In assay [1], the “protein expression of colonic E-cadherin, Bax, Bcl-2, cleaved caspase-3 and Bcl-2/Bax ratio (Western blot)” value is on record as “marked improvement”. The TNF-α in assay [2] is on record as 20.49 ± 0.73 $ pg/mg protein. For the same compound, the Disease activity score in assay [3] is 0.45 ± 0.06 $. Also, the “colonic histopathological damage (H&E)” value in [4] is listed as “nearly normalized the colonic damage”. The MPO activity in the assay with myeloperoxidase (MPO) is 8.01 ± 0.30 $, @ U/mg protein. Besides, the “colonic E-cadherin expression (immunostaining)” value in the assay with E-cadherin was “greatly upregulated and nearly normalized”. Besides, the “colonic MMP-9 overexpression (immunostaining)” value in [5] is “marked improvement”. The “colonic caspase-3 expression (immunostaining)” value in the assay on caspase-3 is “greatly decreased and nearly normalized”. Further, the GSH in [6] is given as 39.75 ± 1.38 $ nmol/mg protein. The “colonic macroscopic appearance (damage)” value in assay [7] is reported as “greatly improved”. For the same compound, the Colon weight/length ratio in assay [7] (mean ± SEM, n = 8) is 78.23 ± 2.11 $ mg/cm.

Values taken from publication PMC9246205, “Olmesartan medoxomil self-microemulsifying drug delivery system reverses apoptosis and improves cell adhesion in trinitrobenzene sulfonic acid-induced colitis in rats” (Drug Delivery, 2022).
